Here are results for one molecule from patent US20060293351A1, “Promotion of wound healing” (priority 1999, published 2006).

SMILES strings stand for the structures. Where two headings read alike, the source gives them in different places.

The test system of one series is urethral strictures. Format: in vivo, rats. The text has this: Tile effect of Halofuginone in post-trauma stricture formation in rats was studied. Briefly, urethral strictures were induced by catheterization and application of an electrical current to the urethra of rats. The rats were divided into four groups: untreated rats as controls (FIG. 5A); rats treated with Halofuginone but not with coagulation current (FIG. 5B); rats treated with coagulation current alone (FIG. 5C); and rats treated with both Halofuginone and coagulation current (FIG. 5D-5F).
The experiments were performed as follows. First, urethral catherization was performed on anesthetized rats with a 23 G Quik-Cath (Baxter, Ireland) sheath. A spinal needle was inserted into the sheath, and was used to apply a coagulation current at a level of 10 W to the outer end of the needle for 1 second at three locations, 8, 10 and 12 mm from the meatus, in order to produce urethral strictures. Halofuginone was given for 7 days starting at the day of stricture formation, either orally at concentrations of 1 ppm and 5 ppm in the diet, or by injection of 0.03% Halofuginone dissolved in 2% lignocaine directly into the urethra once a day. Urethral gross morphology was evaluated by urethrogram after injecting contrast material (Telebrix Megalumine 300 mg/ml. Laboratorie, Guerbet, Aulnay Sous Bios, France) into the anesthetized rat through a 23 G Quik-Cath sheath, under fluoroscopy 3 weeks after stricture formation.

A further series deals with collagen. In words: Collagen content at the stricture site (Sirius red staining). Format: in vivo, rats. As to the method: The experiments were performed as follows. First, urethral catherization was performed on tile rats with a 23 G Quik-Cath (Baxter, Ireland) sheath. A spinal needle was inserted into the sheath, and was used to apply a coagulation current at a level of 10 W to the outer end of the needle for 1 second at three locations, 8, 10 and 12 mm from the meatus, in order to produce urethral strictures. Halofuginone was given for 7 days starting at the day of stricture formation, either orally at concentrations of 1 ppm and 5 ppm in the diet, or by injection of 0.03% Halofuginone dissolved in 2% lignocaine directly into the urethra once a day. After 21 days, the rats were sacrificed and the sutures were reopened to determine the level of urethral stricture formation, at which time biopsies of the tissue were taken. The tissue was sectioned so that histological studies could be performed. Briefly, the tissue samples were collected into phosphate-buffered saline (PBS) and fixed overnight in 4% paraformaldehyde in PBS at 4° C. Serial 5 μm sections were prepared after the samples had been dehydrated in graded ethanol solutions, cleared in chloroform and embedded in Paraplast. Differential staining of collagenous and non-collagenous proteins was performed with 0.1% Sirius red and 0.1% fast green as a counter-stain in picric acid. […]

For the next series, the system named is chickens. Conditions: in vivo; cited from earlier work.
The subject of series [1] is full depth incision in the skin. The series can be described thus: Wound healing in irradiated and wounded mice (histology, collagen type I immunohistochemistry). Format: in vivo. Particulars: 1 mg per mouse i.p. every other day, 14 days. The method, then:
The effect of Halofuginone on wound healing was examined by using mice which were first irradiated and then wounded.
The experiment was conducted as follows. First, C3H, defined-flora, pathogen-free female mice of 12-14 weeks of age were anesthetized with 60 mg/kg sodium […]. The mice were then shaved. One group of mice was then irradiated as follows. First, a flap of skin about 40 mm long and about 20 mm wide was pulled through a slit in the lead cover of an irradiation jig and secured with tape, so that only the flap of skin was exposed. This exposed skin as then irradiated by using a 175 kVp/20 mA orthovoltage X-ray source, with a 2 mm Cu filter at a dose rate of 1.0 Gy/min. A standard dose of 18 Gy was delivered.
All of the mice were then wounded by making a full depth incision, about 25 mm long, in the skin along the midline of the lower back. Note that for the irradiated animals, the wound was made within the irradiated area, immediately following irradiation. For all mice, the incision was immediately closed by 3-4 metallic wound closure clips which were removed 2 days later.
After wounding, the mice were injected i.p. every other day, either with 1 mg per mouse of Halofuginone or with saline as a control. […]

The subject of another series is collagen α1(I) gene. In words: Northern blot of collagen α1(I) gene in urethral fibroblasts. Format: cell-based, rat. Particulars: Northern blot analysis. The method, then:
Next, total RNA was isolated using the guanidinium-thiocyanate-phenol technique (Chomczynski, P. and N. Sacchi, Anal. Biochem., 162:156, 1987). RNA was subjected to 1% agarose denaturing gel electrophoresis, followed by blotting onto a nylon filter (GeneScreen Plus, New England Nuclear, Boston, Mass., USA). The probe for the collagen α1(I) gene was labeled using the random primer procedure with a commercial kit (Boehringer, Germany). Hybridization was performed overnight at 40° C. in a solution containing 10% dextran sulfate, 1% SDS, 1 M NaCl, 40% formamide and […] denatured herring sperm DNA. Hybridization was followed by two 30-minute washes in 2×SSC (1×SSC contains 0.15 M NaCl and 0.015 M sodium citrate), 1% SDS, and two 20 minute washes in 1×SSC, 0.1% SDS. The filters were exposed to X-ray film (Agfa-Curix) at −70° C., using intensifying screens.

In the case of `O=C(CC1NCCC[C@H]1O)Cn1cnc2cc(Br)c(Cl)cc2c1=O` (stereo partly shown) [Halofuginone], the stricture formation result is “did not affect stricture formation” with urethral strictures (1 ppm in the diet for 7 days with coagulation treatment); “did not have strictures” in the series with urethral strictures (5 ppm in the diet for 7 days with coagulation treatment); “did not have strictures” in the series on urethral strictures (locally administered (0.03% in 2% lignocaine into the urethra once a day, 7 days) with coagulation treatment); “did not have any strictures” with urethral strictures (rat, in vivo). For the same molecule, the “amount of collagen in the biopsies” value with collagen (given locally (FIG. 7D)) and with collagen (given orally (FIG. 7C)) was “decreased the amount of collagen” throughout. For the same molecule, in the series on chickens, the skin tearing entry is “increased skin tearing”. Besides, the “collagen content in the wound” value in series [1] (irradiated mouse (18 Gy)) was “significantly lowered”. Moreover, in series [1] (wounded and irradiated skin), the “healing of the wound” value is listed as “the wound still healed”. In the series on collagen α1(I) gene, the “expression of the collagen α1(I) gene” value was “specifically decreased the expression”.
